Measurements reported in US10245249B2, “Pharmaceutical compositions comprising nitroxyl donors” (Cardioxyl Pharmaceuticals, Inc., priority 2013, dated 2019).

Experiments:
[1] = system: dogs; test: Canine implanted central catheter 72 hour continuous infusion model (clinical and microscopic pathology of vasculature); type: in vivo; conditions: for NOAEL (μg/kg/min) (molar equivalent to CXL-1020): based on microscopic pathology markers (edema, hemorrhage, vascular and perivascular inflammation); for toxicological profile relative to CXL-1020: microscopic pathology, Table 8
Protocol: To determine the cause of the inflammation and hind limb swelling, a series of 72-hour continuous infusion investigative studies were conducted over the following 6 months. […] The first site of inflammation, the catheter insertion site, caused the dog hind limb swelling and inflammation observed in the early-terminated follow-up study. Increasing infusate pH from 4 to 6 decreased inflammation, improving the inflammatory profile by approximately 3-fold (see FIG. 4).
Confirmation of this was obtained through evaluating the nitroxyl donors through detailed histopathology of the vasculature at the site of insertion of into the femoral vein (15 cm distal to the catheter tip), along the catheter track to the catheter tip, and past the tip downstream 20 cm.
A composite score was calculated from the sum of these findings scores. In FIG. 3, the cumulative histology composite score ranges from 0-2 (low severity) to 11-12 (high severity). […] The NOAEL values determined based on these microscopic pathology markers for a series of nitroxyl donors, expressed in molar equivalent dose rates (μg/kg/min) to CXL-1020, are provided in Table 8.

[2] = system: beagle dogs; test: Canine peripheral vein toxicity model, 24 hour infusion (clinical pathology markers of inflammation: WBC, fibrinogen, CRP); type: in vivo; conditions: for NOAEL (μg/kg/min) (actual): based on clinical pathology markers (WBC, fibrinogen, CRP), 24 hour infusion, CAPTISOL 7% w/v, pH 4
Protocol: Key inflammatory markers measured include white blood cells (WBC), fibrinogen, and C-reactive protein (CRP).
After 24 hours of infusion, clinical pathology changes similar to those observed in previous studies using an implanted central catheter were detected.
Studies were conducted in male and female beagle dogs. Animals were allowed free access to drinking water and a commercial canine diet under standard laboratory conditions. Animals were fasted prior to blood sample collections when indicated by the study protocol. Fluorescent lighting was provided via an automatic timer for approximately 12 hours per day. On occasion, the dark cycle was interrupted intermittently due to study-related activities. Temperature and humidity were monitored and recorded daily and maintained to the maximum extent possible between 64° F. to 84° F. and 30% to 70%, respectively. The dogs were acclimated for a period of at least 1 week. During this period, the animals were weighed weekly and observed with respect to general health and any signs of disease. The animals were acclimated to wearing a jacket for at least three days prior to dose administration. Additionally, the animals were also acclimated to wearing an Elizabethan collar (e-collar) during the jacket acclimation.
Animals were catheterized the day prior to dose administration. A percutaneous catheter was placed (using aseptic technique and sterile bandaging) in the cephalic vein distal to the elbow. The animals were free-moving in their cages during continuous infusion dose administration. To facilitate continuous infusion dose administration, the peripheral catheter was attached to an extension set routed underneath a canine jacket and then attached to a tether infusion system. To prevent the animals from accessing/removing the peripherally placed percutaneous catheter, the catheterization site was bandaged using Vet Wrap and an e-collar was placed on the animals for the duration of the treatment (i.e., the catheterized period). During the pretreatment period, the venous catheter was infused continuously at a rate of approximately 2-4 mL/hr with 0.9% sodium chloride for injection, USP (saline) to maintain catheter patency. Prior to dosing, the infusion system was pre-filled (slow bolus infusion) with the respective dosing solution to ensure that dosing began as soon as the infusion pump was started. The infusion line was connected to a reservoir containing the control or test compound and the infusion was started. Test compositions were infused continuously, at a predetermined constant infusion rate (1 or 2 mL/kg/hr), for 24 hours and were compared at molar equivalent dose rates.
A detailed clinical examination of each animal was performed twice daily and body temperature measurements and blood samples for clinical pathology were collected from all animals pre-dose and 6 hours, 12 hours, 24 hours and 72 hours post start of composition infusion. At the termination of the study, all animals were euthanized at their scheduled necropsy and complete necropsy examinations were performed. Selected tissues were collected, fixed and stored for potential future microscopic examination. The cephalic vein containing the infusion catheter was dissected intact along with the brachial vein and examined along its entire length. The location of the catheter tip was marked on the unfixed specimen. After fixation, the specimen was trimmed and processed to slide to provide transverse histologic sections representing the catheter tip and surrounding tissues both proximal and distal to the catheter tip (i.e., 1 cm distal to the catheter tip, at the catheter tip, and 1, 5, 10, 15, and 20 cm proximal to the catheter tip). Relative to the catheter tip, “proximal” was defined as closer to the heart and “distal” was defined as further from the heart.
Each compound was formulated with CAPTISOL® (7% w/v) in sterile water at a pH of 4. […]

CS(=O)(=O)c1ccccc1S(=O)(=O)NO [CXL-1020, N-hydroxy-2-methanesulfonylbenzene-1-sulfonamide, reference compound]
findings around catheter insertion site, at catheter tip and downstream ([1]; 72-hour infusion, dogs): Vascular inflammation
NOAEL (μg/kg/min) (molar equivalent to CXL-1020) [1]: <3 µg/kg/min
dose rates at which significant undesirable side effects were still demonstrated ([1]; infusate pH 6, dogs): greater than or equal to 3 μg/kg/min
dose rates causing clinical pathology changes consistent with an inflammatory process ([1]; pH 4 formulation, 1:1 molar CXL-1020:CAPTISOL, diluted in 5% dextrose, 72-hour infusion, dogs): greater than or equal to 0.03 μg/kg/min
finding in upper forelimb downstream from catheter tip ([2]; after 6 hours of infusion, percutaneous catheter in cephalic vein, dogs): significant edema
microscopic pathology at the catheter tip ([2]; after 24 hours of infusion, percutaneous catheter in cephalic vein, dogs): severe thrombophlebitis
NOAEL (μg/kg/min) (actual) [2]: <0.03 µg/kg/min

Cc1ccc(S(=O)(=O)NO)o1 [Compound 1, N-Hydroxy-5-methylfuran-2-sulfonamide]
NOAEL (μg/kg/min) (molar equivalent to CXL-1020) [1]: ≥180 µg/kg/min
improvement relative to CXL-1020 ([2]; NOAEL, clinical pathology markers): greater than 660 fold
NOAEL (μg/kg/min) (actual) [2]: >20 µg/kg/min
NOAEL compared with CXL-1020 ([2]; clinical pathology markers): significantly higher than that of CXL-1020

CS(=O)(=O)c1cccc(S(=O)(=O)NO)c1 [Compound 2, N-Hydroxy-3-methanesulfonylbenzene-1-sulfonamide]
NOAEL (μg/kg/min) (molar equivalent to CXL-1020) [1]: ≥180 µg/kg/min
NOAEL (μg/kg/min) (actual) [2]: 3 µg/kg/min
NOAEL compared with CXL-1020 ([2]; clinical pathology markers): significantly higher than that of CXL-1020

O=S(=O)(NO)c1ccco1 [Compound 83, N-Hydroxyfuran-2-sulfonamide]
NOAEL (μg/kg/min) (molar equivalent to CXL-1020) [1]: ≥90 µg/kg/min
toxicological profile relative to CXL-1020 [1]: substantially improved toxicological profile relative to CXL-1020
NOAEL (μg/kg/min) (actual) [2]: 3 µg/kg/min
NOAEL compared with CXL-1020 ([2]; clinical pathology markers): significantly higher than that of CXL-1020

Cc1ccc(S(=O)(=O)NO)s1 [Compound 84, N-Hydroxy-5-methylthiophene-2-sulfonamide]
NOAEL (μg/kg/min) (molar equivalent to CXL-1020) [1]: ≥60 µg/kg/min
toxicological profile relative to CXL-1020 [1]: substantially improved toxicological profile relative to CXL-1020
NOAEL (μg/kg/min) (actual) [2]: 10 µg/kg/min
NOAEL compared with CXL-1020 ([2]; clinical pathology markers): significantly higher than that of CXL-1020

Cn1ccc(S(=O)(=O)NO)n1 [Compound 85, N-Hydroxy-1-methyl-1H-pyrazole-3-sulfonamide]
NOAEL (μg/kg/min) (molar equivalent to CXL-1020) [1]: ≥180 µg/kg/min
toxicological profile relative to CXL-1020 [1]: substantially improved toxicological profile relative to CXL-1020
NOAEL (μg/kg/min) (actual) [2]: 3 µg/kg/min
NOAEL compared with CXL-1020 ([2]; clinical pathology markers): significantly higher than that of CXL-1020
